Results taken from patent publication US11795177B2, “Substituted quinoline analogs as aldehyde dehydrogenase 1A1 (ALDH1A1) inhibitors” (THE UNITED STATES OF AMERICA, AS REPRESENTED BY THE …, priority 2017, dated 2023).
Where a name gives a salt, the structure may show the parent alone.

The compounds below were run on MIA PaCa-2 cells (assay: MIA PaCa2 cell-based assay (1,536-well high-content imaging ALDEFLUOR assay)). Details: Homo sapiens, 0.5 h, ALDEFLUOR BAAA substrate 500 nM, 30 minutes.
Parameters: species or system human
Method: Example 359. MIA PaCa2 Cell-Based Assay (In Vitro Assay)
1,536-Well High-Content Imaging ALDEFLUOR Assay
The ALDEFLUOR™ kit was purchased from […] Technologies (Vancouver, Canada; #01700). MIA PaCa-2 cells (5 μL; 1,000 cells/well) were dispensed into black, optical quality (cyclic olefin copolymer) clear bottom, medium binding TC treated 1,536-well plates (Aurora Microplates, Whitefish Mont.) using a Multidrop Combi dispenser (ThermoFisher) and incubated overnight (37° C., 5% CO2, 85% RH). Media (RPMI 1640 (Life Technologies, Carlsbad, Calif.), supplemented with 2 mM L-Glutamine (Life Technologies), 10% HyClone™ fetal bovine serum (FBS, GE Healthcare, Piscataway, N.J.) and 100 U/mL penicillin and 100 μg/mL streptomycin (Life Technologies)) was subsequently removed by centrifuging plates upside down using a plate adaptor to collect media. A solution of BAAA substrate ([…] Technologies) and Hoechst 33342 (ThermoFisher, final concentrations of 500 nM and 0.5 nM, respectively) in ALDEFLUOR™ buffer ([…] Technologies #01700) was dispensed onto cells using a Multidrop Combi followed by immediate transfer (23 nL) of compound or control solutions using a Wako Pin-tool (final percentage of DMSO in the cell plates was 0.5%). Unless otherwise noted, all compounds were assayed as 16-point dilutions spanning a final concentration range of 1.4 nM to 47.8 μM. The neutral and positive assay controls were DMSO and DEAB (4.6 μM), respectively. Cells were incubated for 30 minutes or the indicated amount of time at 37° C., 5% CO2, 85% RH to allow the conversion of BAAA into BAA. Supernatant was subsequently removed by centrifugation as described above, then ALDEFLUOR™ buffer (3 μl) was dispensed by Multidrop Combi before imaging on an IN Cell 2200 (GE Healthcare).
The above assay was modified for an online robotic screening system. After cell plating and overnight incubation, 4 μL of media were removed using a 64-tip metal aspirator head on a Wako aspirator station, leaving 1 μL remaining in the well, followed by a 4 μL dispense of BAAA and Hoechst 33342 in ALDEFLUOR™ buffer, for a final concentration of 500 nM and 0.5 nM, respectively Immediately following the dispense, 23 nL of compound or control solutions were transferred using a Wako Pin-tool. Cells were incubated for 30 minutes at 37° C., 5% CO2, 85% RH, followed by a 4 μL media removal using the Wako aspirator, and a subsequent 3 μL addition of ALDEFLUOR™ buffer. Plates were then immediately read on the IN Cell 2200 as described below.
Image Acquisition and Analysis
For images captured on the IN Cell 2200 widefield automated microscope, a 10×0.45 NA Plan Apo objective lens was used to capture the entire well of the 1,536-well plate using standard DAPI (390/18×, 432/48 m) and FITC (475/28×, 525/48 m) filter sets at 50 msec and 100 msec exposures, respectively. Images were subsequently analyzed using IN Cell Investigator v1.6.2 analysis software's canned Multi-Target Analysis algorithm (GE Healthcare). Hoechst stained nuclei were identified using top hat segmentation with a minimum area of 75 μm^2 and sensitivity of 93. BAA-retaining cells captured via FITC channel, were identified using multiscale top hat segmentation with a minimum area of 100 μm^2 and a sensitivity setting of 16. […] Data were plotted using GraphPad Prism software (GraphPad, San Diego, Calif.).
Compound `CCC1(CC)CCN(c2c(C(=O)N3CCN(C(=O)C4CC4)CC3)cnc3ccc(F)cc23)CC1` [Example 81, (4-(cyclopropanecarbonyl)piperazin-1-yl)(4-(4,4-diethylpiperidin-1-yl)-6-fluoroquinolin-3-yl)methanone] has an IC50 of 1000 to 10000 nM. For `O=C(c1cnc2c(F)cc(F)cc2c1N1CCC2(CC1)OCCO2)N1CCN(C(=O)C2CC2)CC1` [Example 78, (4-(cyclopropanecarbonyl)piperazin-1-yl)(6,8-difluoro-4-(1,4-dioxa-8-azaspiro[4.5]decan-8-yl)quinolin-3-yl)methanone], the IC50 was 1000 to 10000 nM. With `COc1ccc2c(-c3ccc(C4(C#N)CC4)cc3)c(C(=O)N3CCN(S(C)(=O)=O)CC3)cnc2c1` [Cpd. 322, 1-(4-(7-methoxy-3-(4-(methylsulfonyl)piperazine-1-carbonyl)quinolin-4-yl)phenyl)cyclopropane-1-carbonitrile] the IC50 was under 500 nM. Work on `C[C@@H]1CN(C(=O)c2cnc3ccc(F)cc3c2N2CCC(C)(C#N)CC2)CCN1S(C)(=O)=O` [Example 223, (R)-1-(6-fluoro-3-(3-methyl-4-(methylsulfonyl)piperazine-1-carbonyl)quinolin-4-yl)-4-methylpiperidine-4-carbonitrile] yielded an IC50 of 1000 to 10000 nM. For `N#CC1(Cc2ccccc2)CCN(c2c(C(=O)N3CCN(C(=O)C4CC4)CC3)cnc3ccc(F)cc23)CC1` [Example 244, 4-benzyl-1-(3-(4-(cyclopropanecarbonyl)piperazine-1-carbonyl)-6-fluoroquinolin-4-yl)piperidine-4-carbonitrile], the IC50 was over 10000 nM. Compound `COc1cc2ncc(C(=O)N3CCN(C(=O)C4CC4)CC3)c(N3CCC4(CC3)OCCO4)c2cc1OC` [Example 48, (4-(cyclopropanecarbonyl)piperazin-1-yl)(6,7-dimethoxy-4-(1,4-dioxa-8-azaspiro[4.5]decan-8-yl)quinolin-3-yl)methanone] has an IC50 of 1000 to 10000 nM. `O=C(c1cnc2ccc(F)cc2c1N1CC2CCC(C2)C1)N1CCN(C(=O)C2CC2)CC1` [Example 82, (4-(3-azabicyclo[3.2.1]octan-3-yl)-6-fluoroquinolin-3-yl)(4-(cyclopropanecarbonyl)piperazin-1-yl)methanone] showed an IC50 of over 10000 nM. `O=C(c1cnc2ccc(F)cc2c1N1CC2(CCCCC2)C1)N1CCN(C(=O)C2CC2)CC1` [Example 80, (4-(cyclopropanecarbonyl)piperazin-1-yl)(6-fluoro-4-(2-azaspiro[3.5]nonan-2-yl)quinolin-3-yl)methanone] gave an IC50 of over 10000 nM. `N#CC1(c2ccccc2)CCN(c2c(C(=O)N3CCN(C(=O)C4CC4)CC3)cnc3ccc(F)cc23)CC1` [Example 208, 1-(3-(4-(cyclopropanecarbonyl)piperazine-1-carbonyl)-6-fluoroquinolin-4-yl)-4-phenylpiperidine-4-carbonitrile] gave an IC50 of under 500 nM. `COc1ccc2ncc(CN3CCN(C(=O)C4CC4)CC3)c(N3CCC4(CC3)OCCO4)c2c1` [Example 57, Cyclopropyl(4-((6-methoxy-4-(1,4-dioxa-8-azaspiro[4.5]decan-8-yl)quinolin-3-yl)methyl)piperazin-1-yl)methanone] showed an IC50 of over 10000 nM. `COc1ccc2c(N3CCC(C#N)(c4ccccc4)CC3)c(C(=O)N3CCN(S(C)(=O)=O)CC3)cnc2c1` [Cpd. 318, 1-(7-methoxy-3-(4-(methylsulfonyl)piperazine-1-carbonyl)quinolin-4-yl)-4-phenylpiperidine-4-carbonitrile] gave an IC50 of under 500 nM. For `N#CC1(c2ccc(-c3c(C(=O)N4CCN(C(=O)C5CC5)CC4)cnc4ccc(Cl)cc34)cc2)CC1` [Example 294, 1-(4-(6-chloro-3-(4-(cyclopropanecarbonyl)piperazine-1-carbonyl)quinolin-4-yl)phenyl)cyclopropanecarbonitrile], the IC50 was under 500 nM. `CS(=O)(=O)N1CCN(C(=O)c2cnc3ccc(F)cc3c2-c2ccc(C3(C#N)CCCC3)cc2)CC1` [Cpd. 309, 1-(4-(6-fluoro-3-(4-(methylsulfonyl)piperazine-1-carbonyl)quinolin-4-yl)phenyl)cyclopentanecarbonitrile] showed an IC50 of under 500 nM. With `CS(=O)(=O)N1CCN(C(=O)c2cnc3c(F)cc(F)cc3c2-c2ccc(C3(C#N)CC3)cc2)CC1` [Cpd. 324, 1-(4-(6,8-difluoro-3-(4-(methylsulfonyl)piperazine-1-carbonyl)quinolin-4-yl)phenyl)cyclopropane-1-carbonitrile] the IC50 was under 500 nM. In the case of `CC1(C#N)CCN(c2c(C(=O)N3CCC(C(=O)C4CC4)CC3)cnc3ccc(F)cc23)CC1` [Example 194, 1-(3-(4-(cyclopropanecarbonyl)piperidine-1-carbonyl)-6-fluoroquinolin-4-yl)-4-methylpiperidine-4-carbonitrile], the IC50 is reported as 1000 to 10000 nM. `O=C(c1cnc2ccc(F)cc2c1N1CCCCCC1)N1CCN(C(=O)C2CC2)CC1` [Example 71, (4-(azepan-1-yl)-6-fluoroquinolin-3-yl)(4-(cyclopropanecarbonyl)piperazin-1-yl)methanone] gave an IC50 of 1000 to 10000 nM. `CCC1(C#N)CCN(c2c(C(=O)N3CCN(S(C)(=O)=O)CC3)cnc3ccc(F)cc23)CC1` [Example 197, 4-ethyl-1-(6-fluoro-3-(4-(methylsulfonyl)piperazine-1-carbonyl)quinolin-4-yl)piperidine-4-carbonitrile] gave an IC50 of under 500 nM. Work on `CN(C)C(=O)N1CCN(C(=O)c2cnc3ccc(F)cc3c2N2CCC(C)(C#N)CC2)CC1` [Example 182, 4-(4-(4-cyano-4-methylpiperidin-1-yl)-6-fluoroquinoline-3-carbonyl)-N,N-dimethylpiperazine-1-carboxamide] yielded an IC50 of 1000 to 10000 nM. For `CC1(C#N)CCN(c2c(C(=O)N3CCC(S(C)(=O)=O)CC3)cnc3ccc(F)cc23)CC1` [Example 188, 1-(6-fluoro-3-(4-(methylsulfonyl)piperidine-1-carbonyl)quinolin-4-yl)-4-methylpiperidine-4-carbonitrile], the IC50 was 1000 to 10000 nM. Work on `CS(=O)(=O)N1CCN(C(=O)c2cnc3ccc(F)cc3c2N2CCC(C#N)(c3ccccc3F)CC2)CC1` [Example 274, 1-(6-fluoro-3-(4-(methylsulfonyl)piperazine-1-carbonyl)quinolin-4-yl)-4-(2-fluorophenyl)piperidine-4-carbonitrile] yielded an IC50 of under 500 nM. With `O=C(c1cnc2ccc(F)cc2c1N1CCC(F)CC1)N1CCN(C(=O)C2CC2)CC1` [Example 76, (4-(cyclopropanecarbonyl)piperazin-1-yl)(6-fluoro-4-(4-fluoropiperidin-1-yl)quinolin-3-yl)methanone] the IC50 was over 10000 nM. `COc1ccc2ncc(C(=O)N3CCN(C(=O)C4CC4)CC3)c(N3CCC4(CC3)OCCO4)c2c1` [Example 1, (4-(cyclopropanecarbonyl)piperazin-1-yl)(6-methoxy-4-(1,4-dioxa-8-azaspiro[4.5]decan-8-yl)quinolin-3-yl)methanone, TFA] was tested, and the IC50 was 1000 to 10000 nM. Work on `CN(C)S(=O)(=O)N1CCN(C(=O)c2cnc3ccc(F)cc3c2-c2ccc(C3(C#N)CC3)cc2)CC1` [Example 260, 4-(4-(4-(1-cyanocyclopropyl)phenyl)-6-fluoroquinoline-3-carbonyl)-N,N-dimethylpiperazine-1-sulfonamide] yielded an IC50 of under 500 nM. `CC(C)(C#N)c1ccc(-c2c(C(=O)N3CCN(C(=O)C4CC4)CC3)cnc3ccc(F)cc23)cc1` [Example 264, 2-(4-(3-(4-(cyclopropanecarbonyl)piperazine-1-carbonyl)-6-fluoroquinolin-4-yl)phenyl)-2-methylpropanenitrile] showed an IC50 of under 500 nM.
